Here are results for 4 molecules from patent US7582312B2, “Methods to produce lung surfactant formulations via lyophilization and formulations and uses thereof” (Discovery Laboratories, Inc., priority 2004, dated 2009).

≈ marks a conversion by molar mass, not a printed value. Where no end group is shown, it is not given here.

Series [1] can be described thus: physchem. The following applies: 37 °C, aqueous with cosolvent or surfactant or cyclodextrin, thermodynamic from solid.
Protocol: (§1) Aliquots of each lipid and peptide were accurately weighed into 1.5 ml Eppendorf tubes. […] To each tube 0.2 ml of solvent was added. Each tube was vortexed and then bath sonicated for several minutes to facilitate dissolution. Samples were then placed in a 37° C. bath for approximately 30 minutes and then removed and placed on the counter for up to 30 minutes. […] Three independent Eppendorf tubes were prepared and tested for each solute-solvent combination. Visual observations were made of each tube as to whether they appeared a) clear (i.e., apparently fully soluble), b) to contain non-dissolved material, or c) indeterminate. Small aliquots of each tube were then taken, diluted in the HPLC running buffer, and analyzed by HPLC. HPLC was performed using a CIS column by established methods.
The nature of series [2]: Individual component solubilities in t-butanol/water solutions (HPLC). As to conditions: about 37° C.; for solubility at 30 min: 37 °C, thermodynamic from solid.
Protocol: as §1
Series [3] can be described thus: Achievable dissolution concentrations of components in 60% TBA cosolvent without NaCl. The following applies: for Measured Concentration, 1: replicate 1; for Measured Concentration, 2: replicate 2; for Measured Concentration, 3: replicate 3; for Measured Concentration, AVG: room temperature, individual component.
Where [4] appears, read: 50% t-butanol in water, aqueous with cosolvent or surfactant or cyclodextrin.
The mark [5] stands for this setting: 80% t-butanol in water, organic solvent or mixture.
Setting [6] is: 90% t-butanol in water, organic solvent or mixture.
Setting [7] is: 95% t-butanol in water, organic solvent or mixture.
Setting [8] is: 100% t-butanol, organic solvent or mixture.

For orientation: Solubility means the concentration that dissolves in the medium under given conditions. Higher therefore signals much dissolved substance. In series [1], KLLLLKLLLLKLLLLKLLLLK [KL4] returned a Solubility greater than 67 mg/mL.

What is called solubility is the concentration that dissolves in the medium under given conditions. Turning to `CCCCCCCCCCCCCCCCO` [CA, cetyl alcohol], the solubility at 30 min in series [2] (setting [4]) was 14 mg/mL (≈ 57.7 mM); in series [2] (setting [5]) it was greater than 224 mg/mL; in series [2] (setting [6]) it was greater than 229 mg/mL; in series [2] (setting [7]), greater than 251 mg/mL; in series [2] (setting [8]), greater than 270 mg/mL.

Regarding `CCCCCCCCCCCCCCCC(=O)OC[C@H](COP(=O)([O-])OCC[N+](C)(C)C)OC(=O)CCCCCCCCCCCCCCC` [DPPC, dipalmitoyl phosphatidylcholine], the “Measured Concentration, 1” value in series [3] was 34.8 mg/mL. For the same molecule, in series [3], the “Measured Concentration, 2” value turned out to be 35.0 mg/mL. Besides, in series [3], the “Measured Concentration, 3” value is 35.2 mg/mL. For the same molecule, the “Measured Concentration, AVG” value in series [3] is 35.0 mg/mL. The solubility at 30 min in series [2] (setting [4]) was greater than 49 mg/mL; in series [2] (setting [5]), greater than 133 mg/mL; in series [2] (setting [6]), greater than 145 mg/mL; in series [2] (setting [7]), greater than 150 mg/mL; in series [2] (setting [8]), greater than 150 mg/mL.

As to `CCCCCCCC/C=C\CCCCCCCC(=O)O[C@H](COC(=O)CCCCCCCCCCCCCCC)COP(=O)(O)OCC(O)CO` (some centres unmarked) [POPG, palmitoyloleoyl phosphatidylglycerol], in series [3], the “Measured Concentration, 1” value worked out at 298.4 mg/mL. Besides, the “Measured Concentration, 2” value in series [3] came out at 283.7 mg/mL. Also, in series [3], the “Measured Concentration, 3” value was determined as 290.6 mg/mL. The “Measured Concentration, AVG” value in series [3] was found to be 290.9 mg/mL. In addition, the Solubility in series [2] (50% t-butanol in water) was greater than 47 mg/mL; in series [2] (80% t-butanol in water), greater than 119 mg/mL; in series [2] (90% t-butanol in water), greater than 160 mg/mL; in series [2] (95% t-butanol in water), 34 mg/mL (≈ 45.4 mM); in series [2] (97.5% t-butanol in water), 20 mg/mL (≈ 26.7 mM); in series [2] (99% t-butanol in water) it was less than 5 mg/mL. Moreover, the Solubility in series [2] (100% t-butanol) was less than 5 mg/mL.
